In assay [1] the target is human histone deacetylase. Nature of the assay: Test 1: Determination of histone deacetylase inhibitor activity ([3H]acetyl histone deacetylation). The following applies: human histone deacetylase partially purified from Jurkat cells; [3H]acetyl-labeled histones, 25° C., 30 minutes; read-out: Test 1: HDAC inhibitory activity IC50. It is filed as biochemical. As for the experimental part: Test 1: Determination of Histone Deacetylase Inhibitor Activity
The partial purification of human histone deacetylase, the preparation of [^3H] acetyl histones, and the assay for histone deacetylase activity were performed basically according to the method as proposed by Yoshida et al. as follows.
Partial Purification of Human Histone Deacetylase
The human histone deacetylase was partially purified from human T cell leukemia Jurkat cells. Jurkat cells (5×10^8 cells) were suspended in 40 mL of the HDA buffer consisting of 15 mM potassium phosphate, pH 7.5, 5% glycerol and 0.2 mM EDTA. After homogenization, nuclei were collected by centrifugation (35,000×g, 10 min) and homogenized in 20 mL of the same buffer supplemented with 1 M (NH4)2SO4. The viscous homogenate was sonicated and clarified by centrifugation (35,000×g, 10 min), and the deacetylase was precipitated by raising the concentration of (NH4)2SO4 to 3.5 M. The precipitated protein was dissolved in 10 mL of the HDA buffer and dialyzed against 4 liters of the same buffer. The dialyzate was then loaded onto a DEAE-cellulose (Whatman DE52) column (25×85 mm) equilibrated with the same buffer and eluted with 300 mL of a linear gradient (0–0.6 M) of NaCl. A single peak of histone deacetylase activity appeared between 0.3 and 0.4 M NaCl.
Preparation of [^3H] Acetyl Histone
To obtain [^3H] acetyl-labeled histone as the substrate for the histone deacetylase assay, 1×10^8 cells of Jurkat in 20 mL of RPMI-1640 medium (supplemented with 10% FBS, penicillin (50 units/mL) and streptomycin (50 μg/mL)) were incubated with 300 MBq [^3H] sodium acetate in the presence of 5 mM sodium butyrate for 30 minutes in 5% CO2-95% air atmosphere at 37° C. in a 75 cm^2 flask, harvested into a centrifuge tube (50 mL), collected by centrifugation at 1000 rpm for 10 minutes, and washed once with phosphate-buffered saline. The washed cells were suspended in 15 mL of ice-cold lysis buffer (10 mM Tris-HCl, 50 mM sodium bisulfite, 1% Triton X-100, 10 mM MgCl2, 8.6% sucrose, pH 6.5). After Dounce homogenization (30 stroke), the nuclei were collected by centrifugation at 1000 rpm for 10 minutes, washed 3 times with 15 mL of the lysis buffer, and once with 15 mL of ice-cooled washing buffer (10 mM Tris-HCl, 13 mM EDTA, pH 7.4) successively. […]
For the standard assay, 10 μl of [^3H] acetyl-labeled histones were added to 90 μl of the enzyme fraction, and the mixture was incubated at 25° C. for 30 minutes. […] The released [^3H] acetic acid was extracted with 1 mL of ethyl acetate, and 0.9 mL of the solvent layer was taken into 10 mL of toluene scintillation solution for determination of radioactivity.

For assay [2], the system named is splenic cells of Lewis rats. Nature of the assay: Test 2: Determination of T-cell growth inhibitor activity (T lymphocyte blastogenesis, Concanavalin A, AlamarBlue). The following applies: Lewis rat splenic cells, 72 hours, AlamarBlue Assay, read-out: Test 2: T-cell growth inhibitory activity IC50. Format: cell-based. As for the experimental part: Test 2: Determination of T-Cell Growth Inhibitor Activity
The T lymphocyte blastogenesis test was performed in microtiter plates with each well containing 1.5×10^5 splenic cells of Lewis rats in 0.1 mL RPMI-1640 medium supplemented with 10% fetal bovine serum-(FBS), […] 2-mercaptoethanol, penicilln (100 units/mL) and streptomycin (100 μg/mL), to which Concanavalin A ([…]) was added. The cells were incubated at 37° C. in a humidified atmosphere of 5% CO2 for 72 hours. After the culture period, suppressive activities of the test compounds in T lymphocyte blastogenesis were quantified by AlamarBlue (trademark) Assay. The test samples were dissolved in DMSO and further diluted with RPMI-1640 medium and added to the culture. The activities of the test compounds were expressed as IC50.
On the technique in general: Alamar Blue is a resazurin reagent that responds to reducing activity.

Structures are written as SMILES.

For the compound `O=C(/C=C/c1ccc(Cc2nc3ccccc3[nH]2)cc1)NO` [Compound E1], the IC50 (in general, the midpoint of a concentration-inhibition curve) in assay [1] came to 28 nM; in assay [2], 69 nM.
For `O=C(/C=C/c1ccc(CCc2nc3ccccc3[nH]2)cc1)NO` [Compound E3] the same measures were 140 nM and 160 nM.
Turning to `O=C(/C=C/c1ccc(C(Cc2ccccc2)c2nc3ccccc3n2Cc2ccccc2)cc1)NO` (centres unmarked) [Compound E5], the 50% inhibitory concentration (IC50) in assay [1] came to 96 nM; in assay [2] it was 310 nM.
For `O=C(/C=C/c1cccc(Cc2nc3ccccc3[nH]2)c1)NO` [Compound E6] the same measures were 150 nM and 150 nM.

The record behind these values is patent US7135493B2, “HDAC inhibitor” (Astellas Pharma Inc., priority 2003, dated 2006).
